Test results: patent US20240173432A1, “Compositions and Methods for Treatment of Myotonic Dystrophy Type 1 with CRISPR/SluCas9” (Vertex Pharmaceuticals Incorporated, priority 2021, published 2024)

Tests used:
[1] = tested on: 3′ UTR of the human DMPK gene; test: Single-cut screening: indel editing efficiency by Sanger sequencing and ICE analysis in primary DM1 patient myoblasts; format: cell-based; conditions: vehicle-treated samples; for Indel efficiency: single SluCas9 sgRNA RNP in primary DM1 patient myoblasts, Sanger sequencing and ICE analysis
Method in brief: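 Indels were estimated by ICE from Sanger chromatograms of PCR amplicons covering the DMPK 3′ UTR wild-type allele, using only vehicle-treated samples; sgRNAs with R2<0.9 are flagged. Samples came from primary DM1 patient myoblasts (2 × 10^5) harvested 72 h after nucleofection with 30 pmol SluCas9 and 90 pmol single sgRNA RNP.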

[2] = tested on: CUG foci in primary DM1 patient myoblasts; test: Single-cut screening: FISH staining of CUG RNA foci; format: cell-based, human; conditions: single sgRNA, primary DM1 patient myoblasts; for % of CUG foci free nuclei (DNA-PKi): DNA-PKi treated
Method in brief: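 CD56-purified primary DM1 patient myoblasts nucleofected with SluCas9:sgRNA RNP (30:90 pmol, single-cut), then DMSO or 3 μM DNA-PK inhibitor for 48 h. At 72 h post-nucleofection, cells fixed and stained for CUG foci with Cy3-PNA(CAG)5 probe (1 ng/μL, 80 °C), co-stained for MBNL1 and Hoechst, imaged by high-content confocal microscopy.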

[3] = tested on: CAG foci in primary DM1 patient myoblasts; test: Single-cut screening: CAG foci staining; format: cell-based, human; conditions: single sgRNA; for % of CAG foci positive nuclei (DNA-PKi): DNA-PKi treated
Method in brief: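 Primary DM1 patient myoblasts were PFA-fixed and hybridized with […] (1 ng/μL, 15 min at 80° C) in 30% formamide/2×SSC, followed by anti-MBNL1 immunostaining and Hoechst counterstain. CAG RNA foci were quantified by high-content confocal imaging after single-cut SuCas9 sgRNA editing.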

Row | Sequence | Indel efficiency [1] [%] | % of CUG foci free nuclei (DNA-PKi) [2] [%] | % of CUG foci free nuclei (Vehicle) [2] [%] | % of CAG foci positive nuclei (DNA-PKi) [3] [%] | % of CAG foci positive nuclei (Vehicle) [3] [%] | indel efficiency (Sanger sequencing and ICE analysis) ([1]; single-cut, SluCas9 RNP, 72 hrs post nucleofection, wild-type allele)
1 | GGGCGCGGGATCCCCGAAAAAG (guide RNA; chemistry not fully specified) [SluD43] | 1 | 20.27 | 6.41 | 0.82 | 1.31 | 
2 | GGGGCGCGGGATCCCCGAAAAA (guide RNA; chemistry not fully specified) [SluD44] | 24 | 36.44 | 8.05 | 2.29 | 1.49 | 
3 | GGGGGTGCGTGGAGGATGGAAC (guide RNA; chemistry not fully specified) [SluD20] | 24 | 24.59 | 13.32 | 1.1 | 1.81 | 
4 | GGGGTCTCAGTGCATCCAAAAC (guide RNA; chemistry not fully specified) [SluD78] | 4 | 27 | 12.61 | 1.36 | 2.31 | 
5 | GGGTCGGGGGTGGGGGTCCTAG (guide RNA; chemistry not fully specified) [SluD87] | 30 | 39.12 | 15.16 | 2.19 | 1.3 | 
6 | GGTCCTGTAGCCTGTCAGCGAG (guide RNA; chemistry not fully specified) [SluD69] | 14 | 27.98 | 10.88 | 2.13 | 1.3 | 
7 | GGTCGGGGGTGGGGGTCCTAGG (guide RNA; chemistry not fully specified) [SluD86] | 30 | 31.62 | 11.98 | 3.95 | 1.98 | 
8 | GTATTTATTGTCTGTCCCCACC (guide RNA; chemistry not fully specified) [SluD84] | 10 | 30.25 | 9.15 | 3.03 | 1.28 | 
9 | GTCCAGAGCTTTGGGCAGATGG (listed as DNA, chemistry not fully specified) [SluD100] | 81 | 37.39 | 22.06 | 3.35 | 2.15 | high editing IN4DEL efficiency
10 | GTCGGGGGTGGGGGTCCTAGGT (guide RNA; chemistry not fully specified) [SluD85] | 28 | 29.51 | 17.4 | 2.82 | 2.51 | 
11 | GTGCGTGGAGGATGGAACACGG (guide RNA; chemistry not fully specified) [SluD19] | 24 | 27.72 | 12.59 | 1.68 | 2.32 | 
12 | GTGGATGGGCAAACTGCAGGCC (guide RNA; chemistry not fully specified) [SluD13] | 55 | 42.02 | 15.93 | 2.77 | 4.07 | 
